By IC50 is commonly meant the midpoint of a concentration-inhibition curve.

Sequence of truncated Polθ protein (Polθ-Hel containing the helicase domain (67-894)) (O75417 67-894): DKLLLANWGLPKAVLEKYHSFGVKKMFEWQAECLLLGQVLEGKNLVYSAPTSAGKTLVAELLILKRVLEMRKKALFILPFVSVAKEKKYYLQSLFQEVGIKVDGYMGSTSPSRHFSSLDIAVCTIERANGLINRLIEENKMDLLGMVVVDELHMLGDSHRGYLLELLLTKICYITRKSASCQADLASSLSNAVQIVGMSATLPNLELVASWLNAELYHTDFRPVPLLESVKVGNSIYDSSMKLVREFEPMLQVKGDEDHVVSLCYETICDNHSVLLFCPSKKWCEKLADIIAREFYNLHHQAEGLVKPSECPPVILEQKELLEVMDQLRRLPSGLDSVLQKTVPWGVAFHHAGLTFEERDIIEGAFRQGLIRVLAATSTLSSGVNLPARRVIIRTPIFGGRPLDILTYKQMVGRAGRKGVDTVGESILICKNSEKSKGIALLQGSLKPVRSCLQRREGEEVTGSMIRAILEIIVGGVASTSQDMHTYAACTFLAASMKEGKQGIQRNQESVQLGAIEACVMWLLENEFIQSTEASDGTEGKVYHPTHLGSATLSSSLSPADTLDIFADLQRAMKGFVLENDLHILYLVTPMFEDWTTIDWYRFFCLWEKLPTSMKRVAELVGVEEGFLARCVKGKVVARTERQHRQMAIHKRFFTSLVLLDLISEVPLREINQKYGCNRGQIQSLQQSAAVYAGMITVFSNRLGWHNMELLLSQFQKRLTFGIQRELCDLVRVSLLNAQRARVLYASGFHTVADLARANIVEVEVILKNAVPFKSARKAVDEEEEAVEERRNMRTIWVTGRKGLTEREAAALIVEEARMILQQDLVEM

The experiment concerns the target truncated Polθ protein (Polθ-Hel containing the helicase domain (67-894)) (Homo sapiens (Human), UniProt O75417). The experiment is described as follows: Polθ ATPase assay (Biological Assay 1, ADP-Glo luminescence). The format is biochemical. Particulars: Table B; compounds of Experimental Part B, in vitro; read-out: Polθ ATPase assay IC50. The gist of the method:
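Polθ-Hel (0.5 nM) with 500 nM ssDNA oligo in pH 8.8 Tris buffer (5 mM MgCl2, 1 mM DTT) was preincubated with compound 30 min at 23 °C. The reaction ran 60 min after 60 μM ATP was added (stated as the added solution, not final). ADP formed was detected by ADP-Glo luminescence to derive IC50.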
(ADP-Glo turns the ADP formed in a reaction into a luminescent signal.)
Consider `COc1cnc(Cl)cc1-c1cc(C)ncc1C(=O)Nc1nc2cc(OCC3CCN(C(C)=O)CC3)ccc2s1` [Example 109, N-{5-[(1-acetylpiperidin-4-yl)methoxy]-1,3-benzothiazol-2-yl}-2′-chloro-5′-methoxy-6-methyl-[4,4′-bipyridine]-3-carboxamide], for which the IC50 is < 100 nM.

As to `COc1cnc(Cl)cc1-c1cc(C)ncc1C(=O)Nc1nc2cc(OCC(=O)N(C)C)ccc2s1` [Example 110, 2′-chloro-N-{5-[(dimethylcarbamoyl)methoxy]-1,3-benzothiazol-2-yl}-5′-methoxy-6-methyl-[4,4′-bipyridine]-3-carboxamide], the half-inhibitory concentration (IC50) was < 100 nM.

For the compound `COc1cnc(Cl)cc1-c1cc(C)ncc1C(=O)Nc1nc2cc(OCCN3CCOCC3)ccc2s1` [Example 111, 2′-chloro-5′-methoxy-6-methyl-N-{5-[2-(morpholin-4-yl)ethoxy]-1,3-benzothiazol-2-yl}-[4,4′-bipyridine]-3-carboxamide], the half-maximal inhibitory concentration (IC50) is < 100 nM.

Turning to `COc1cnc(Cl)cc1-c1cc(C)ncc1C(=O)Nc1nc2cc(OC(C)C)ccc2s1` [Example 112, 2′-chloro-5′-methoxy-6-methyl-N-[5-(propan-2-yloxy)-1,3-benzothiazol-2-yl]-[4,4′-bipyridine]-3-carboxamide], the IC50 is < 100 nM.

In the case of `COc1cnc(Cl)cc1-c1cc(C)ncc1C(=O)Nc1nc2cc(OCC3CS(=O)(=O)C3)ccc2s1` [Example 113, 2′-chloro-N-{5-[(1,1-dioxo-1-λ6-thietan-3-yl)methoxy]-1,3-benzothiazol-2-yl}-5′-methoxy-6-methyl-[4,4′-bipyridine]-3-carboxamide], the IC50 lay within 100 to 1000 nM.

As to `CCOc1ccc2sc(NC(=O)c3cnc(C)cc3-c3cc(Cl)ncc3OC)nc2c1` [Example 114, 2′-chloro-N-(5-ethoxy-1,3-benzothiazol-2-yl)-5′-methoxy-6-methyl-[4,4′-bipyridine]-3-carboxamide], the IC50 was 100 to 1000 nM.

As to `COc1cnc(Cl)cc1-c1cc(C)ncc1C(=O)Nc1nc2cc(OCCOC(F)(F)F)ccc2s1` [Example 115, 2′-chloro-5′-methoxy-6-methyl-N-{5-[2-(trifluoromethoxy)ethoxy]-1,3-benzothiazol-2-yl}-[4,4′-bipyridine]-3-carboxamide], the IC50 fell in the range of 100 to 1000 nM.

Regarding `COc1cnc(C(F)(F)F)cc1-c1cc(CC(=O)N(C)C)ncc1C(=O)Nc1nc2cncnc2s1` [Example 116, 6-[(dimethylcarbamoyl)methyl]-5′-methoxy-N-{[1,3]thiazolo[5,4d]pyrimidin-2-yl}-2′-(trifluoromethyl)-[4,4′-bipyridine]-3-carboxamide], the IC50 was < 100 nM.

For `COc1cnc(C)cc1-c1cc(C)ncc1C(=O)Nc1nc2cnc(N3CCC(O)CC3)nc2s1` [Example 117, N-[5-(4-hydroxypiperidin-1-yl)-[1,3]thiazolo[5,4-d]pyrimidin-2-yl]-5′-methoxy-2′,6-dimethyl-[4,4′-bipyridine]-3-carboxamide], the IC50 was < 100 nM.

In the case of `COc1cnc(Cl)cc1-c1cc(C)ncc1C(=O)Nc1nc2cnc(NCCCCC(=O)O)cc2s1` [Example 119, 5-[(2-{2′-chloro-5′-methoxy-6-methyl-[4,4′-bipyridine]-3-amido}-[1,3]thiazolo[4,5-c]pyridin-6-yl)amino]pentanoic acid], the IC50 is < 100 nM.

On to `COc1cnc(Cl)cc1-c1cc(C)ncc1C(=O)Nc1nc2ccc(NCCCCC(=O)O)nc2s1` [Example 120, 5-[(2-{2′-chloro-5′-methoxy-6-methyl-[4,4′-bipyridine]-3-amido}-[1,3]thiazolo[5,4-b]pyridin-5-yl)amino]pentanoic acid], for which the IC50 is < 100 nM.

In the case of `COc1cnc(Cl)cc1-c1cc(C)ncc1C(=O)Nc1nc2cc(OCc3nn[nH]n3)ccc2s1` [Example 121, 2′-chloro-5′-methoxy-6-methyl-N-{5-[(2H-1,2,3,4-tetrazol-5-yl)methoxy]-1,3-benzothiazol-2-yl}-[4,4′-bipyridine]-3-carboxamide], the 50% inhibitory concentration (IC50) was < 100 nM.

In the case of `COc1cnc(Cl)cc1-c1cc(C)ncc1C(=O)Nc1nc2cc(O)ccc2s1` [Example 122, 2′-chloro-N-(5-hydroxy-1,3-benzothiazol-2-yl)-5′-methoxy-6-methyl-[4,4′-bipyridine]-3-carboxamide], the IC50 is < 100 nM.

With `COc1cnc(Cl)cc1-c1cc(C)ncc1C(=O)Nc1nc2cc(OCCOC(C)=O)ccc2s1` [Example 123, 2-[(2-{2′-chloro-5'-methoxy-6-methyl-[4,4′-bipyridine]-3-amido}-1,3-benzothiazol-5-yl)oxy]ethyl acetate], the IC50 is < 100 nM.

With `COc1cnc(Cl)cc1-c1cc(C)ncc1C(=O)Nc1nc2cc(OCCO)ccc2s1` [Example 124, 2′-chloro-N-[5-(2-hydroxyethoxy)-1,3-benzothiazol-2-yl]-5′-methoxy-6-methyl-[4,4′-bipyridine]-3-carboxamide], the IC50 was < 100 nM.

As for `COc1cnc(Cl)cc1-c1cc(C)ncc1C(=O)Nc1nc2c(OCC#N)ncnc2s1` [Example 126, 2′-chloro-N-[7-(cyanomethoxy)-[1,3]thiazolo[5,4-d]pyrimidin-2-yl]-5′-methoxy-6-methyl-[4,4′-bipyridine]-3-carboxamide], the IC50 was < 100 nM.

For `COc1cnc(Cl)cc1-c1cc(C)ncc1C(=O)Nc1nc2c(OCC(N)=O)ncnc2s1` [Example 127, N-[7-(carbamoylmethoxy)-[1,3]thiazolo[5,4-d]pyrimidin-2-yl]-2′-chloro-5′-methoxy-6-methyl-[4.4′-bipyridine]-3-carboxamide], the IC50 was < 100 nM.

In the case of `COc1cnc(Cl)cc1-c1cc(C)ncc1C(=O)Nc1nc2ccc(C3COCCN3)cc2s1` (stereo not shown) [Example 128, 2′-chloro-5′-methoxy-6-methyl-N-[6-(morpholin-3-yl)-1,3-benzothiazol-2-yl]-[4,4′-bipyridine]-3-carboxamide], the IC50 was < 100 nM.

For `COc1cnc(Cl)cc1-c1cc(C)ncc1C(=O)Nc1nc2cnc(NCC(C)(C)O)cc2s1` [Example 130, 2′-chloro-N-{6-[(2-hydroxy-2-methylpropyl)amino]-[1,3]thiazolo[4,5-c]pyridin-2-yl}-5′-methoxy-6-methyl-[4,4′-bipyridine]-3 carboxamide], the IC50 is < 100 nM.

With `COc1cnc(Cl)cc1-c1cc(C)ncc1C(=O)Nc1nc2cnc(N3CC(C)(OC)C3)cc2s1` [Example 131, 2′-chloro-5′-methoxy-N-[6-(3-methoxy-3-methylazetidin-1-yl)-[1,3]thiazolo[4,5-c]pyridin-2-yl]-6-methyl-[4,4′-bipyridine]-3-carboxamide], the IC50 was < 100 nM.

In the case of `COc1cnc(Cl)cc1-c1cc(C)ncc1C(=O)Nc1nc2c(C)nc(N3CCC(O)CC3)nc2s1` [Example 132, 2′-chloro-N-[5-(4-hydroxypiperidin-1-yl)-7-methyl-[1,3]thiazolo[5,4-d]pyrimidin-2-yl]-5′-methoxy-6-methyl-[4,4′-bipyridine]-3-carboxamide], the IC50 was < 100 nM.

With `COc1cnc(Cl)cc1-c1cc(C)ncc1C(=O)Nc1nc2cnc(OCC(C)(C)O)nc2s1` [Example 133, 2′-chloro-N-[5-(2-hydroxy-2-methylpropoxy)-[1,3]thiazolo[5,4-d]pyrimidin-2-yl]-5′-methoxy-6-methyl-[4,4′-bipyridine]-3-carboxamide], the IC50 is < 100 nM.

The values above are taken from US20240327430A1 (Breakpoint Therapeutics GmbH, priority 2023, published 2024).
